Data set [1] can be described thus: Cytotoxicity against African green monkey Vero cells incubated for 24 hrs by neutral red uptake assay. The class given is toxicity, cell-based. As to conditions: chlorocebus sabaeus; for MNTC at 24 h: read-out: MTD.
The target in data set [2] is T1, Shiga toxin subunit A (Shigella dysenteriae) (UniProt Q9FBI2).
T1 sequence (whole entry): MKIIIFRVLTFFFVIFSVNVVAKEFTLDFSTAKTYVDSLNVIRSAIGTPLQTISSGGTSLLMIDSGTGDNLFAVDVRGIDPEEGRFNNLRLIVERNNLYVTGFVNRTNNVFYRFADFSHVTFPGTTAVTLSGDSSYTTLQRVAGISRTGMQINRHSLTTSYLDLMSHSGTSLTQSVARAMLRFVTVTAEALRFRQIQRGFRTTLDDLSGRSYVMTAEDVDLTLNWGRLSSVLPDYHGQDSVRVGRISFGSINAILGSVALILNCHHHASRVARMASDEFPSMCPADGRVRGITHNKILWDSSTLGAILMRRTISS

The subject of data set [3] is Mus musculus. The data set can be described thus: Toxicity in Balb/c mouse at 2 mM, ip measured after 0 to 14 days. It counts as organism-based. Particulars: in vivo, 2000 µM.
Data set [4] can be described thus: Inhibition of Shigella dysenteriae type 2 Shiga toxin in African green monkey Vero cells assessed as inhibition of Stx-induced cytotoxicity incubated for 10 hrs by MTS/PMS assay. The class given is cell-based.
Data set [5] concerns Mus musculus. The data set can be described thus: Inhibition of Shigella dysenteriae Shiga toxin-induced mortality in Balb/c mouse exposed to 5 x LD50 Shigella toxin assessed as increase in mouse survival at 2 mM, ip preincubated with Stx for 1 hr measured after 0 to 14 days. It counts as functional, organism-based.
In data set [6] the test system is Mus musculus. The data set can be described thus: Inhibition of Shigella dysenteriae Shiga toxin-induced mortality in Balb/c mouse exposed to 5 x LD50 Shigella toxin assessed as reduction in symptomatic effects of toxin at 2 mM, ip preincubated with Stx for 1 hr measured after 0 to 14 days. It counts as functional, organism-based.
In data set [7] the test system is Mus musculus. Briefly: Inhibition of Shigella dysenteriae Shiga toxin-induced mortality in Balb/c mouse exposed to 5 x LD50 Shigella toxin assessed as increase in mouse survival at 2 mM, ip dosed 1 hr before toxin injection measured after 24 to 48 hrs. The class given is functional, organism-based.
The test system of data set [8] is Mus musculus. The data set can be described thus: Inhibition of Shigella dysenteriae Shiga toxin-induced mortality in Balb/c mouse exposed to 5 x LD50 Shigella toxin assessed as increase in mouse survival at 2 mM, ip dosed 1 after toxin injection measured after 24 to 48 hrs. The class given is functional, organism-based.

Each structure is given as a SMILES string. Activity calls are given as the source filed them. The rule behind the calls is not given here.

For the molecule `O=C(NCCNCCSc1ccccc1)C1CCCCC1`, in data set [1], the MNTC at 24 h is 38 µM.

For orientation: ΔTm means the shift of the melting midpoint relative to a reference. For the molecule `Nc1nc2[nH]cnc2c(=O)[nH]1`, the ΔTm in data set [2] was determined as 4.45 °C.

What is called CC50 is the concentration that lowers cell viability or growth by half. On to `Oc1ncnc2[nH]ncc12` [ALLOPURINOL], for which, in data set [1], the CC50 at 24 h stood at 428 µM and the MNTC at 24 h came out at 250 µM. Moreover, the Activity entry in the data set with Mus musculus [3] was “Non-Toxic”. Besides, the ΔTm in data set [2] was found to be 3.75 °C.

With `O=C1NC(=O)C2N=CNC2N1` (centres undefined), the MNTC at 24 h in data set [1] turned out to be 9.3 µM.

For orientation: IC50 means the concentration needed to halve the response being measured. For the molecule `c1ccc(SCCNCCN2CCCC2)cc1`, the MNTC at 24 h in data set [1] stood at 63.3 µM. Further, the IC50 in data set [4] came to 25 µM.

With `CCCCSCCNCCNP(=S)(OCC)OCC`, in data set [1], the MNTC at 24 h came to 32.3 µM. For the same molecule, the IC50 in data set [4] came to 25 µM.

For the molecule `Nc1ncc2[nH]cnc2n1` [2-AMINOPURINE], the MNTC at 24 h in data set [1] is 125 µM.

As to `Cc1ccsc1-c1cc(=O)c2ccccc2[nH]1`, in data set [1], the MNTC at 24 h came out at 5.33 µM.

For the molecule `CC(=O)c1ccccc1NC(=O)/C=C\c1ccccc1`, the inhibition entry with Mus musculus [5], in the data set with Mus musculus [6], with Mus musculus [7] and with Mus musculus [8] was “Active” throughout. This molecule came in with a 50% cytotoxic concentration (CC50) at 24 h in data set [1] of 29.7 µM. Besides, the MNTC at 24 h in data set [1] was determined as 6.96 µM. Further, in the data set with Mus musculus [3], the Activity entry is recorded as “Non-Toxic”.

For the molecule `O=C1NCN=C2NC=NC12` (centres undefined), in data set [1], the MNTC at 24 h is 125 µM. Also, in data set [2], the ΔTm came to 2.32 °C.

Regarding `O=C(/C=C/c1ccccc1)Oc1c(-c2ccccc2)oc2ccccc2c1=O`, the MNTC at 24 h in data set [1] amounted to 64 µM.

Turning to `CC(=O)c1ccccc1NC(=O)c1ccc([N+](=O)[O-])cc1`, in data set [1], the MNTC at 24 h turned out to be 17.3 µM.

Consider `Nc1ncnc2c1ncn2[C@@H]1O[C@H](COP(=O)(O)O)[C@@H](O)[C@H]1O` [ADENOSINE PHOSPHATE], for which, in data set [1], the MNTC at 24 h stood at 75 µM.

On to `Nc1ccncn1`, for which the MNTC at 24 h in data set [1] was 250 µM.

As for `Nc1ncnc2nn[nH]c12`, the MNTC at 24 h in data set [1] is 18.7 µM.

As to `CC(=O)c1ccccc1NC(=O)c1ccccc1F`, the inhibition entry with Mus musculus [5], in the data set on Mus musculus [6], with Mus musculus [7] and with Mus musculus [8] was “Active” throughout. Further, in data set [1], the CC50 at 24 h is 120 µM. Moreover, the MNTC at 24 h in data set [1] was 37 µM. Also, in the data set on Mus musculus [3], the Activity result is given as “Non-Toxic”.

Regarding `Nc1nc2nc[nH]c2c(=O)[nH]1` [GUANINE], in data set [1], the CC50 at 24 h was found to be 136 µM and the MNTC at 24 h was 125 µM. Further, the Activity entry with Mus musculus [3] is recorded as “Non-Toxic”.

For the molecule `Nc1nc(N)c2[nH]cnc2n1` [2,6-DIAMINOPURINE], the MNTC at 24 h in data set [1] is 9.3 µM.

For `O=c1cc(-c2ccccc2F)[nH]c2ccccc12`, the MNTC at 24 h in data set [1] amounted to 5 µM.

Turning to `S=C1N=CN=C2NC=NC12` (centres undefined), the MNTC at 24 h in data set [1] was 18.7 µM.

Turning to `Oc1cc(/C=C/c2ccccc2)nc2ccccc12`, the MNTC at 24 h in data set [1] was 9.33 µM.

Take `O=C(/C=C\c1ccccc1)NCCO`: the MNTC at 24 h in data set [1] came to 31.6 µM.

For the molecule `COc1ccc(/C=C/C(=O)c2ccccc2O)cc1`, in data set [1], the MNTC at 24 h came out at 7.35 µM.

In the case of `CC(=O)c1ccccc1NC(=O)c1ccc(F)cc1`, the MNTC at 24 h in data set [1] was 10 µM.

Turning to `O=C(/C=C/c1ccccc1)Nc1ccccc1O` [N-(2-HYDROXYPHENYL)CINNAMAMIDE], the MNTC at 24 h in data set [1] is 32 µM.

For the molecule `O=C(/C=C/c1ccccc1F)c1ccccc1O`, the MNTC at 24 h in data set [1] was found to be 5.67 µM.

On to `Nc1ncnc2c1ncn2[C@@H]1O[C@H](CO)[C@@H](O)[C@H]1O` [ADENOSINE], for which the MNTC at 24 h in data set [1] was 125 µM.

As to `O=C(/C=C/c1cccs1)c1ccccc1O`, the MNTC at 24 h in data set [1] is 17 µM.

`CCCSCCNCCNC(=O)c1ccc(Cl)cc1`: the MNTC at 24 h in data set [1] came to 124 µM.

For the molecule `O=C(NCCNCCSc1ccccc1)c1ccc([N+](=O)[O-])cc1`, the inhibition entry in the data set with Mus musculus [5], with Mus musculus [6], with Mus musculus [7] and with Mus musculus [8] was “Active” in each case. In addition, the CC50 at 24 h in data set [1] was 177 µM. Besides, the MNTC at 24 h in data set [1] was 15 µM. Besides, the Activity entry in the data set on Mus musculus [3] was “Non-Toxic”.

For the molecule `CCCSCCNCCNC(=O)/C=C/c1ccccc1`, the inhibition entry with Mus musculus [5], in the data set on Mus musculus [6], with Mus musculus [7] and in the data set with Mus musculus [8] was “Active” throughout. For the same molecule, in data set [1], the CC50 at 24 h came to 123 µM. Besides, the MNTC at 24 h in data set [1] is 38 µM. The Activity result in the data set with Mus musculus [3] is “Non-Toxic”.

On to `Cc1ncnc2nc[nH]c12`, for which the MNTC at 24 h in data set [1] is 9.3 µM.

These data come from ChEMBL document CHEMBL3862035, “In Silico Discovery and Validation of Amide Based Small Molecule Targeting the Enzymatic Site of Shiga Toxin” (J Med Chem, 2016).
